Earlier results in publication PMC10985535 (RSC Advances, 2024).

System: CT-DNA

For CC[n+]1c(-c2ccccc2)c2cc(N)ccc2c2ccc(N)cc21.[Br-] [EtBr], the “Ksv of classical intercalator” value is listed as 10^7 M^−1.
